Measurements reported in the OPERA property sets (Mansouri et al. 2018).

Structure (SMILES)	boiling point	melting point	other results
C=CC=COC	91.5 °C	–	–
NC(=O)C(=O)O	–	–	log10 vapour pressure (mmHg): -6.33
Cc1ccc(S(=O)(=O)c2ccc(C)cc2)cc1	406 °C	159 °C	–
COc1ccc([N+](=O)[O-])c(N)c1	–	131 °C	–
Cc1ccc([N+](=O)[O-])cc1N	–	106 °C	–
Brc1ccc(Sc2ccc(Br)cc2)cc1	268 °C	115 °C	–
CC(C)OC(=O)c1ccco1	198 °C	–	–
CC(C)(Oc1ccc(Cl)cc1)C(=O)O	–	118 °C	–
Clc1ccc2c(c1)C(c1ccccc1)=NCc1nncn1-2	–	228 °C	–
O=C1CCN(c2ccccc2)N1	–	126 °C	–
CCN(CC)C(=O)N(CC)CC	209 °C	–	–
CN(C)CCN(Cc1cccs1)c1ccccn1	–	–	log10 Koc (L/kg): 2.87
CCOc1ccc2nc(S(N)(=O)=O)sc2c1	–	189 °C	–
COc1ccc(C(=O)O)cc1O	–	252 °C	–
SCc1ccc(Cl)cc1	–	19.5 °C	–
NS(=O)(=O)c1cc2c(s1)S(=O)(=O)CCC2=O	–	242 °C	–
Cc1c(Cl)cccc1[N+](=O)[O-]	238 °C	37.8 °C	log10 BCF (fish): 1.99
FC(F)=C(F)C(F)(F)C(F)(F)C(F)(F)C(F)(F)C(F)(F)F	81 °C	–	–
CCOC(=S)SSC(=S)OCC	–	30 °C	–

Structure (SMILES)	boiling point	melting point	other results
O=C(Nc1cc(Cl)cc(Cl)c1O)c1c(O)c(Cl)cc(Cl)c1Cl	–	210 °C	–
CC1Cc2ccccc2C1	195 °C	–	–
FC(F)(F)CI	54.5 °C	–	–
Nc1ccc(/C=C/c2ccc(N)cc2S(=O)(=O)O)c(S(=O)(=O)O)c1	–	–	ready biodegradability: not readily biodegradable
Cc1ccc(C)c(O)c1C	226 °C	58 °C	log10 vapour pressure (mmHg): -1.46; ready biodegradability: not readily biodegradable
CCCCCCCC(=O)Oc1c(I)cc(C#N)cc1I	–	59.5 °C	–
Cc1cc(N)c2ncccc2c1	–	73 °C	–
OCc1c(F)c(F)c(F)c(F)c1F	181 °C	37.5 °C	–
c1cn[nH]n1	204 °C	23 °C	–
CCOc1ccc(C(COCc2cccc(Oc3ccc(Cl)cc3)c2)C(F)(F)F)cc1 (centres undefined)	–	–	log10 vapour pressure (mmHg): -9.01
Cc1ccc2[nH]cnc2c1	–	116 °C	–
CC(C)CCCl	98.9 °C	-104 °C	–
Clc1cc(Cl)c(Cl)c(Cl)c1Cl	277 °C	86 °C	log10 Henry constant (atm·m³/mol): -3.15; log10 Koa: 6.49; log10 Koc (L/kg): 3.5; log10 vapour pressure (mmHg): -3; ready biodegradability: not readily biodegradable; log10 BCF (fish): 3.75; log10 biotransformation half-life (days) (fish): 1.87
Cc1ncc(CO)c(CO)c1O	–	160 °C	–
CC(=O)Oc1ccccc1OC(C)=O	–	64.5 °C	–
CC(S)CS (centres undefined)	152 °C	–	–
O=C[C@@H](O)C(O)CO (stereo in doubt)	–	129 °C	–
CCCOC(=O)N1CCNCC1	–	–	ready biodegradability: readily biodegradable
CCC(C(C)=O)C(C)=O	178 °C	–	–

Structure (SMILES)	boiling point	melting point	other results
COCC(F)(F)C(F)C(F)(F)F (centres undefined)	87.5 °C	–	log10 vapour pressure (mmHg): 1.79
Cl.Nc1ccccc1	–	198 °C	–
O=C(C(Cl)Cl)N(CCO)Cc1ccc(Oc2ccc([N+](=O)[O-])cc2)cc1	–	136 °C	–
OCC(c1ccccc1)c1ccccc1	–	64.5 °C	–
c1cnc2c(c1)CCCC2	222 °C	–	–
COc1ccc(C(O)(c2cncnc2)C2CC2)cc1 (centres undefined)	–	110 °C	log10 Henry constant (atm·m³/mol): -10.8; log10 Koc (L/kg): 2.08; log10 vapour pressure (mmHg): -6.7
CC(=O)OOC(C)=O	–	30 °C	–
Cc1ccc(C(=O)N(C)C)cc1	–	41 °C	–
CCC(C)(c1ccc(O)cc1)c1ccc(O)cc1	–	120 °C	–
OCC(F)(F)C(F)(F)C(F)(F)CO	–	79.5 °C	–
C=CCCCCCCCCO	236 °C	–	–
CCCCCCCCCCCCCCCCCCN	347 °C	52.9 °C	–
CCCCC(CC)COP(=O)(O)CC(CC)CCCC (centres undefined)	–	–	ready biodegradability: not readily biodegradable
CC#CC	26.9 °C	-32.3 °C	log10 vapour pressure (mmHg): 2.85; ready biodegradability: not readily biodegradable
COc1ccc(N)cc1Cl	–	52.5 °C	log10 Koc (L/kg): 1.93
CCOC(=O)C(C)Oc1ccc(Oc2nc3ccc(Cl)cc3o2)cc1 (centres undefined)	–	86.2 °C	log10 Koc (L/kg): 3.98
Nc1cc(N)nc(N)n1	–	250 °C	–
CCCC(CCC)C(C)C	159 °C	–	–
